Like-named read-outs stand apart in the source and are kept apart here.
Tests used:
[1] = test system: Phosphorylation of ERK1/2 in A549 cells; test: Phospho-ERK1/2 MSD assay in A549 cells; type: cell-based; settings: read-out: p-ERK IC50 (2 h, A549; μM), 2 h compound treatment, A549 cells, EGF stimulated
How it was run: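 Phospho-ERK1/2 was quantified by MSD immunoassay in RIPA lysates of MIA PaCa-2 or A549 cells. Before lysis, cells received 10 ng/mL EGF for 10 min after 2 or 4 h exposure at 37° C. to a compound concentration series.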

[2] = biological target: GDP-bound KRAS protein (aa 1-169), containing both G12C and C118A amino acid substitutions (Homo sapiens (Human), UniProt P01116, C118A/G12C); test: Coupled nucleotide exchange assay (SOS-mediated nucleotide exchange, AlphaScreen); type: biochemical; settings: read-out: Coupled exchange IC50 (5 min; μM); 5 min compound pre-incubation
[3] = test system: Phosphorylation of ERK1/2 in MIA PaCa-2 cells; test: Phospho-ERK1/2 MSD assay in MIA PaCa-2 cells; type: cell-based; settings: read-out: p-ERK IC50 (2 h, MiaPaCa-2; μM), 2 h compound treatment, MIA PaCa-2 cells, EGF stimulated
How it was run: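 Phospho-ERK1/2 measured by MSD electrochemiluminescence kit in RIPA lysates of MIA PaCa-2 cells. Cells were treated with compound titrations for 2 or 4 h at 37 °C, 5% CO2, followed by a 10 min pulse of 10 ng/mL EGF.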

Chain of GDP-bound KRAS protein (aa 1-169), containing both G12C and C118A amino acid substitutions (P01116 other isoform, or with tags, fused parts or gaps G12C/C118A): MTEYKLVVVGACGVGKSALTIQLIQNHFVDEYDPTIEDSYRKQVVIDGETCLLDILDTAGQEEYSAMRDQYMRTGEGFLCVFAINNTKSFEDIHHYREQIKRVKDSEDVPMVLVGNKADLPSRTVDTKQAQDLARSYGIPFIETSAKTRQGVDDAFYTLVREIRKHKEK

With `C=CC(=O)N1C[C@H](C)N(c2nc(=O)n(-c3c(C)ccnc3C(C)C)c3nc(-c4cccc(F)c4)c(Cl)cc23)C[C@H]1C` (atropisomer, axis not shown; (M)) [Example 92-52, (M)-6-Chloro-4-[(2S,5R)-2,5-dimethyl-4-prop-2-enoyl-piperazin-1-yl]-7-(3-fluorophenyl)-1-(2-isopropyl-4-methyl-3-pyridyl)pyrido [2,3-d]pyrimidin-2-one] the IC50 ([1]; Homo sapiens, A549, 2 h) was over 7.5 µM, the IC50 [2] was 0.161 µM and the IC50 ([3]; Homo sapiens, MIA PaCa-2, 2 h) was 0.196 µM.
`C=CC(=O)N1C[C@H](C)N(c2nc(=O)n(-c3c(C)ccnc3C(C)C)c3nc(-c4cccc(C)c4)c(Cl)cc23)C[C@H]1C` (atropisomer, axis not shown; (M)) [Example 92-53, (M)-6-Chloro-4-[(2S,5R)-2,5-dimethyl-4-prop-2-enoyl-piperazin-1-yl]-1-(2-isopropyl-4-methyl-3-pyridyl)-7-(m-tolyl)pyrido[2,3-d]pyrimidin-2-one] showed an IC50 ([1]; Homo sapiens, A549, 2 h) of over 7.5 µM, an IC50 [2] of 0.135 µM and an IC50 ([3]; Homo sapiens, MIA PaCa-2, 2 h) of 0.309 µM.
Molecule `C=CC(=O)N1C[C@H](C)N(c2nc(=O)n(-c3c(C)ccnc3C(C)C)c3nc(-c4cccc(Cl)c4)c(Cl)cc23)C[C@H]1C` (atropisomer, axis not shown; (M)) [Example 92-54, (M)-6-Chloro-7-(3-chlorophenyl)-4-[(2S,5R)-2,5-dimethyl-4-prop-2-enoyl-piperazin-1-yl]-1-(2-isopropyl-4-methyl-3-pyridyl)pyrido [2,3-d]pyrimidin-2-one] has an IC50 ([1]; Homo sapiens, A549, 2 h) of over 7.5 µM, an IC50 [2] of 0.169 µM and an IC50 ([3]; Homo sapiens, MIA PaCa-2, 2 h) of 0.217 µM.
With `C=CC(=O)N1C[C@H](C)N(c2nc(=O)n(-c3c(C)ccnc3C(C)C)c3nc(-c4ccccc4CC)c(Cl)cc23)C[C@H]1C` (atropisomer, axis not shown; (M)) [Example 92-55, (M)-6-Chloro-4-[(2S,5R)-2,5-dimethyl-4-prop-2-enoyl-piperazin-1-yl]-7-(2-ethylphenyl)-1-(2-isopropyl-4-methyl-3-pyridyl)pyrido [2,3-d]pyrimidin-2-one] the IC50 ([1]; Homo sapiens, A549, 2 h) was over 7.5 µM, the IC50 [2] was 0.021 µM and the IC50 ([3]; Homo sapiens, MIA PaCa-2, 2 h) was 0.018 µM.
Work on `C=CC(=O)N1C[C@H](C)N(c2nc(=O)n(-c3c(C)ccnc3C(C)C)c3nc(-c4ccc(F)cc4)c(Cl)cc23)C[C@H]1C` (atropisomer, axis not shown; (M)) [Example 92-57, (M)-6-Chloro-4-[(2S,5R)-2,5-dimethyl-4-prop-2-enoyl-piperazin-1-yl]-7-(4-fluorophenyl)-1-(2-isopropyl-4-methyl-3-pyridyl)pyrido [2,3-d]pyrimidin-2-one] yielded an IC50 ([1]; Homo sapiens, A549, 2 h) of over 7.5 µM, an IC50 [2] of 0.126 µM and an IC50 ([3]; Homo sapiens, MIA PaCa-2, 2 h) of 0.126 µM.
`C=CC(=O)N1C[C@H](C)N(c2nc(=O)n(-c3c(C)ccnc3C(C)C)c3nc(-c4cccc(C)c4F)c(Cl)cc23)C[C@H]1C` (atropisomer, axis not shown; (M)) [Example 92-58, (M)-6-Chloro-4-[(2S,5R)-2,5-dimethyl-4-prop-2-enoyl-piperazin-1-yl]-7-(2-fluoro-3-methyl-phenyl)-1-(2-isopropyl-4-methyl-3-pyridyl)pyrido [2,3-d]pyrimidin-2-one] was tested, and the IC50 ([1]; Homo sapiens, A549, 2 h) was over 7.5 µM, the IC50 [2] was 0.074 µM and the IC50 ([3]; Homo sapiens, MIA PaCa-2, 2 h) was 0.023 µM.
Molecule `C=CC(=O)N1C[C@H](C)N(c2nc(=O)n(-c3c(C)ccnc3C(C)C)c3nc(-c4cccc(F)c4C)c(Cl)cc23)C[C@H]1C` (atropisomer, axis not shown; (M)) [Example 92-59, (M)-6-Chloro-4-[(2S,5R)-2,5-dimethyl-4-prop-2-enoyl-piperazin-1-yl]-7-(3-fluoro-2-methyl-phenyl)-1-(2-isopropyl-4-methyl-3-pyridyl)pyrido [2,3-d]pyrimidin-2-one] has an IC50 ([1]; Homo sapiens, A549, 2 h) of over 7.5 µM, an IC50 [2] of 0.028 µM and an IC50 ([3]; Homo sapiens, MIA PaCa-2, 2 h) of 0.034 µM.
`C=CC(=O)N1C[C@H](C)N(c2nc(=O)n(-c3c(C)ccnc3C(C)C)c3nc(-c4cc(C)ccc4F)c(Cl)cc23)C[C@H]1C` (atropisomer, axis not shown; (M)) [Example 92-60, (M)-6-Chloro-4-[(2S,5R)-2,5-dimethyl-4-prop-2-enoyl-piperazin-1-yl]-7-(2-fluoro-5-methyl-phenyl)-1-(2-isopropyl-4-methyl-3 pyridyl)pyrido [2,3-d]pyrimidin-2-one] showed an IC50 ([1]; Homo sapiens, A549, 2 h) of over 7.5 µM, an IC50 [2] of 0.02 µM and an IC50 ([3]; Homo sapiens, MIA PaCa-2, 2 h) of 0.018 µM.
`C=CC(=O)N1C[C@H](C)N(c2nc(=O)n(-c3c(C)ccnc3C(C)C)c3nc(-c4ccc(F)cc4F)c(Cl)cc23)C[C@H]1C` (atropisomer, axis not shown; (M)) [Example 92-61, (M)-6-Chloro-7-(2,4-difluorophenyl)-4-[(2S,5R)-2,5-dimethyl-4-prop-2-enoyl-piperazin-1-yl]-1-(2-isopropyl-4-methyl-3-pyridyl)pyrido [2,3-d]pyrimidin-2-one] gave an IC50 ([1]; Homo sapiens, A549, 2 h) of over 7.5 µM, an IC50 [2] of 0.008 µM and an IC50 ([3]; Homo sapiens, MIA PaCa-2, 2 h) of 0.027 µM.
Molecule `C=CC(=O)N1C[C@H](C)N(c2nc(=O)n(-c3c(C)ccnc3C(C)C)c3nc(-c4cccc(F)c4OC)c(Cl)cc23)C[C@H]1C` (atropisomer, axis not shown; (M)) [Example 92-62, (M)-6-Chloro-4-[(2S,5R)-2,5-dimethyl-4-prop-2-enoyl-piperazin-1-yl]-7-(3-fluoro-2-methoxy-phenyl)-1-(2-isopropyl-4-methyl-3-pyridyl)pyrido [2,3-d]pyrimidin-2-one] has an IC50 ([1]; Homo sapiens, A549, 2 h) of over 7.5 µM, an IC50 [2] of 0.01 µM and an IC50 ([3]; Homo sapiens, MIA PaCa-2, 2 h) of 0.075 µM.
In the case of `C=CC(=O)N1C[C@H](C)N(c2nc(=O)n(-c3c(C)ccnc3C(C)C)c3nc(-c4cccc(F)c4C(F)(F)F)c(Cl)cc23)C[C@H]1C` (atropisomer, axis not shown; (M)) [Example 92-63, (M)-6-Chloro-4-[(2S,5R)-2,5-dimethyl-4-prop-2-enoyl-piperazin-1-yl]-7-[3-fluoro-2-(trifluoromethyl)phenyl]-1-(2-isopropyl-4-methyl-3-pyridyl)pyrido [2,3-d]pyrimidin-2-one], the IC50 ([1]; Homo sapiens, A549, 2 h) is reported as over 7.5 µM, the IC50 [2] is reported as 0.039 µM and the IC50 ([3]; Homo sapiens, MIA PaCa-2, 2 h) is reported as 0.052 µM.
In the case of `C=CC(=O)N1C[C@H](C)N(c2nc(=O)n(-c3c(C)ccnc3C(C)C)c3nc(-c4cccc(F)c4Cl)c(Cl)cc23)C[C@H]1C` (atropisomer, axis not shown; (M)) [Example 92-64, (M)-6-Chloro-7-(2-chloro-3-fluoro-phenyl)-4-[(2S,5R)-2,5-dimethyl-4-prop-2-enoyl-piperazin-1-yl]-1-(2-isopropyl-4-methyl-3-pyridyl)pyrido [2,3-d]pyrimidin-2-one], the IC50 ([1]; Homo sapiens, A549, 2 h) is reported as over 7.5 µM, the IC50 [2] is reported as 0.039 µM and the IC50 ([3]; Homo sapiens, MIA PaCa-2, 2 h) is reported as 0.044 µM.
`C=CC(=O)N1C[C@H](C)N(c2nc(=O)n(-c3c(C)ccnc3C(C)C)c3nc(-c4cc(F)ccc4F)c(Cl)cc23)C[C@H]1C` (atropisomer, axis not shown; (M)) [Example 92-65, (M)-6-Chloro-7-(2,5-difluorophenyl)-4-[(2S,5R)-2,5-dimethyl-4-prop-2-enoyl-piperazin-1-yl]-1-(2-isopropyl-4-methyl-3-pyridyl)pyrido [2,3-d]pyrimidin-2-one] was tested, and the IC50 ([1]; Homo sapiens, A549, 2 h) was over 7.5 µM, the IC50 [2] was 0.066 µM and the IC50 ([3]; Homo sapiens, MIA PaCa-2, 2 h) was 0.046 µM.
`C=CC(=O)N1C[C@H](C)N(c2nc(=O)n(-c3c(C)ccnc3C(C)C)c3nc(-c4cccc(F)c4F)c(Cl)cc23)C[C@H]1C` (atropisomer, axis not shown; (M)) [Example 92-66, (M)-6-Chloro-7-(2,3-difluorophenyl)-4-[(2S,5R)-2,5-dimethyl-4-prop-2-enoyl-piperazin-1-yl]-1-(2-isopropyl-4-methyl-3-pyridyl)pyrido [2,3-d]pyrimidin-2-one] was tested, and the IC50 ([1]; Homo sapiens, A549, 2 h) was over 7.5 µM, the IC50 [2] was 0.034 µM and the IC50 ([3]; Homo sapiens, MIA PaCa-2, 2 h) was 0.033 µM.
For `C=CC(=O)N1C[C@H](C)N(c2nc(=O)n(-c3c(C)ccnc3C(C)C)c3nc(-c4ccccc4OC)c(Cl)cc23)C[C@H]1C` (atropisomer, axis not shown; (M)) [Example 92-67, (M)-6-Chloro-4-[(2S,5R)-2,5-dimethyl-4-prop-2-enoyl-piperazin-1-yl]-1-(2-isopropyl-4-methyl-3-pyridyl)-7-(2-methoxyphenyl) pyrido[2,3-d]pyrimidin-2-one], the IC50 ([1]; Homo sapiens, A549, 2 h) was over 7.5 µM, the IC50 [2] was 0.13 µM and the IC50 ([3]; Homo sapiens, MIA PaCa-2, 2 h) was 0.062 µM.
With `C=CC(=O)N1C[C@H](C)N(c2nc(=O)n(-c3c(C)ccnc3C(C)C)c3nc(-c4sccc4C)c(Cl)cc23)C[C@H]1C` (atropisomer, axis not shown; (M)) [Example 93-1, (M)-6-Chloro-4-[(2S,5R)-2,5-dimethyl-4-prop-2-enoyl-piperazin-1-yl]-1-(2-isopropyl-4-methyl-3-pyridyl)-7-(3-methyl-2-thienyl)pyrido[2,3-d]pyrimidin-2-one] the IC50 [1] was over 7.5 µM, the IC50 [2] was 0.055 µM and the IC50 [3] was 0.097 µM.
With `C=CC(=O)N1C[C@H](C)N(c2nc(=O)n(-c3c(C)ccnc3C(C)C)c3nc(-c4ccccc4C(C)C)c(F)cc23)C[C@H]1C` (atropisomer, axis not shown; (M)) [Example 94-1, (M)-4-[(2S,5R)-2,5-Dimethyl-4-prop-2-enoyl-piperazin-1-yl]-6-fluoro-1-(2-isopropyl-4-methyl-3-pyridyl)-7-(2-isopropylphenyl)pyrido[2,3-d]pyrimidin-2-one] the IC50 [1] was over 7.5 µM, the IC50 [2] was 0.077 µM and the IC50 [3] was 0.107 µM.
